Laboratory results from ChEMBL document CHEMBL5107987, “New naphtho/thienobenzo-triazoles with interconnected anti-inflammatory and cholinesterase inhibitory activity” (Eur J Med Chem, 2022).
pIC50: −log10 of the molar value.

Legend:
[1] = molecular target: Cholinesterase (Equus caballus) (UniProt P81908); test: Inhibition of equine serum BuChE using S-butyrylthiocholine iodide as substrate pre-incubated for 5 mins followed by substrate addition at 800 uM and measured after 6 mins by Ellman's method relative to control
[2] = molecular target: Acetylcholinesterase (Electrophorus electricus) (UniProt O42275); test: Inhibition of electric eel AChE using acetylthiocholine iodide as substrate pre-incubated for 5 mins followed by substrate addition at 800 uM and measured after 6 mins by Ellman's method relative to control
[3] = Inhibition of TNF-alpha production in LPS-stimulated human PBMC measured after 24 hrs by ELISA relative to control; assay type: functional
[4] = molecular target: Cholinesterase (Equus caballus, UniProt P81908); test: Inhibition of equine serum BuChE using S-butyrylthiocholine iodide as substrate pre-incubated for 5 mins followed by substrate addition and measured after 6 mins by Ellman's method
[5] = molecular target: Cholinesterase (Equus caballus) (UniProt P81908); test: Inhibition of equine serum BuChE using S-butyrylthiocholine iodide as substrate pre-incubated for 5 mins followed by substrate addition at 500 uM and measured after 6 mins by Ellman's method relative to control
[6] = molecular target: Acetylcholinesterase (Electrophorus electricus) (UniProt O42275); test: Inhibition of electric eel AChE using acetylthiocholine iodide as substrate pre-incubated for 5 mins followed by substrate addition at 500 uM and measured after 6 mins by Ellman's method relative to control
[7] = Inhibition of TNF-alpha production in LPS-stimulated human PBMC measured after 24 hrs by ELISA; assay type: functional, cell-based
[8] = Cytotoxicity against human PBMC assessed as effect on cell viability measured by Cell Titer Glo assay; assay type: toxicity, cell-based
[9] = molecular target: Cholinesterase (Equus caballus) (UniProt P81908); test: Inhibition of equine serum BuChE using S-butyrylthiocholine iodide as substrate pre-incubated for 5 mins followed by substrate addition at 200 uM and measured after 6 mins by Ellman's method relative to control
[10] = molecular target: Acetylcholinesterase (Electrophorus electricus) (UniProt O42275); test: Inhibition of electric eel AChE using acetylthiocholine iodide as substrate pre-incubated for 5 mins followed by substrate addition at 1000 uM and measured after 6 mins by Ellman's method relative to control
[11] = molecular target: Cholinesterase (Equus caballus) (UniProt P81908); test: Inhibition of equine serum BuChE using S-butyrylthiocholine iodide as substrate pre-incubated for 5 mins followed by substrate addition at 50 uM and measured after 6 mins by Ellman's method relative to control
[12] = molecular target: Acetylcholinesterase (Electrophorus electricus, UniProt O42275); test: Inhibition of electric eel AChE using acetylthiocholine iodide as substrate pre-incubated for 5 mins followed by substrate addition and measured after 6 mins by Ellman's method
[13] = molecular target: Cholinesterase (Equus caballus) (UniProt P81908); test: Inhibition of equine serum BuChE using S-butyrylthiocholine iodide as substrate pre-incubated for 5 mins followed by substrate addition at 250 uM and measured after 6 mins by Ellman's method relative to control
[14] = molecular target: Cholinesterase (Equus caballus) (UniProt P81908); test: Inhibition of equine serum BuChE using S-butyrylthiocholine iodide as substrate pre-incubated for 5 mins followed by substrate addition at 100 uM and measured after 6 mins by Ellman's method relative to control
[15] = molecular target: Acetylcholinesterase (Electrophorus electricus) (UniProt O42275); test: Inhibition of electric eel AChE using acetylthiocholine iodide as substrate pre-incubated for 5 mins followed by substrate addition at 100 uM and measured after 6 mins by Ellman's method relative to control

Cholinesterase, sequence (P81908 whole entry): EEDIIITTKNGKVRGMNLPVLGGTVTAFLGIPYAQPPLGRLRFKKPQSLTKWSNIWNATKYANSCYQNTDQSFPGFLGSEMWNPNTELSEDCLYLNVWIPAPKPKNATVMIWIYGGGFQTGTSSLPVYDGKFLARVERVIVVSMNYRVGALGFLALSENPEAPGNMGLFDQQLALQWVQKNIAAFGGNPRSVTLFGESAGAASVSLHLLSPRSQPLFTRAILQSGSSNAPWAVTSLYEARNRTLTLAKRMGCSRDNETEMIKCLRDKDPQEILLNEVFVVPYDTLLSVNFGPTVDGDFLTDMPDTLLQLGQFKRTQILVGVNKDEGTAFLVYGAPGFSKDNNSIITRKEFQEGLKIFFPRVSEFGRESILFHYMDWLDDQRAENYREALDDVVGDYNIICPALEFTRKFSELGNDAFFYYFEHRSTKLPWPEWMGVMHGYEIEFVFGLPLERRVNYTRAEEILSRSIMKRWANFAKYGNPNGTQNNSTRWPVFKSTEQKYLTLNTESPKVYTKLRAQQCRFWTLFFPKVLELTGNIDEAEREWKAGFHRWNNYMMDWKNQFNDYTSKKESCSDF
Cholinesterase (Equus caballus), sequence (P81908 whole entry): as above
Acetylcholinesterase (Electrophorus electricus), sequence (O42275 24-633 limits assumed): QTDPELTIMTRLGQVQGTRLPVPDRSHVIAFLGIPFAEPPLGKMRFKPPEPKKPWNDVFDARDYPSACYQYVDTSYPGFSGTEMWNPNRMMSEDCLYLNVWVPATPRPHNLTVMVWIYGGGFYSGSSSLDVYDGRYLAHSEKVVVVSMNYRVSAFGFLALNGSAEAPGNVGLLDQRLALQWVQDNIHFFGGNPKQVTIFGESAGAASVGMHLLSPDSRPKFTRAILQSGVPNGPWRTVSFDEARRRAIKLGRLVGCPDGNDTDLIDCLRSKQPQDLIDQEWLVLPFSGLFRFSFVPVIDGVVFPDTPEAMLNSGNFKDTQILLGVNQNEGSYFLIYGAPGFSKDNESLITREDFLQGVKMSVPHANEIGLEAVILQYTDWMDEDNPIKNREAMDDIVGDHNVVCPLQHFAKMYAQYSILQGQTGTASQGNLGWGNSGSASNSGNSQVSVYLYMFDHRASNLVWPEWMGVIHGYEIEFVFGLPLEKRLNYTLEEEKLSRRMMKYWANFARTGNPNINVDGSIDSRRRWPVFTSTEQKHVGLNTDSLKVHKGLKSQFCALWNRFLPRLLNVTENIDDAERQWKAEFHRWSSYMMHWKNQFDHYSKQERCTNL
Acetylcholinesterase, sequence (O42275 whole entry): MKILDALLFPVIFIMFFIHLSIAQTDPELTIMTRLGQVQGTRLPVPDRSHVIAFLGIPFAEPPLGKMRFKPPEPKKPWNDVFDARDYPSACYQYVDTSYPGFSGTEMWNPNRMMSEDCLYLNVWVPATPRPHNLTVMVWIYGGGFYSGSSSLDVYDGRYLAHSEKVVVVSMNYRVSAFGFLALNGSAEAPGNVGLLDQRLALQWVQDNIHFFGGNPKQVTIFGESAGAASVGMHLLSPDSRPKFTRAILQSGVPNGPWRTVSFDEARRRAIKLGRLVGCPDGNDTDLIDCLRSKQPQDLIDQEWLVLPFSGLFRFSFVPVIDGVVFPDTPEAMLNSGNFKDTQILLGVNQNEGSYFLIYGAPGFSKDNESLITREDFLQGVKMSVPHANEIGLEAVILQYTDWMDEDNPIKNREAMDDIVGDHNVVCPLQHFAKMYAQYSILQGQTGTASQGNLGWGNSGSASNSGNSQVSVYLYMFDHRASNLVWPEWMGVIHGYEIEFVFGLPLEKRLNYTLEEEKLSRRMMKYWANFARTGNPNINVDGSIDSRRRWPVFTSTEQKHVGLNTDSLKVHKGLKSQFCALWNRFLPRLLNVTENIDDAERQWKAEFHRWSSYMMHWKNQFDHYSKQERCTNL

OCCCCn1cc(/C=C\c2cccs2)nn1
inhibition [1]: 48.7% | inhibition [2]: 45.2%

O=[N+]([O-])c1ccc(-n2nnc3ccc4sccc4c32)cc1
inhibition (INH) [3]: <50% | pIC50 [4]: 3.35 | inhibition [5]: 53.4% | inhibition [6]: 43.3%

COc1ccc(Cn2cc(/C=C\c3ccccc3C#N)nn2)cc1
pIC50 [7]: < 4.48 | Activity [8]: Non-Toxic

CC(C)n1nnc2ccc3ccccc3c21
inhibition (INH) [3]: <50%

COc1ccc2ccc3nnn(CCCCO)c3c2c1
pIC50 [7]: 5.10 | Activity [8]: Non-Toxic

CCCn1nnc2ccc3sccc3c21
inhibition (INH) [3]: <50% | inhibition [9]: 91.7% | inhibition [10]: 56.2%

CC(C)n1nnc2ccc3ccc(Cl)cc3c21
pIC50 [7]: 4.65 | Activity [8]: Non-Toxic

C=CCn1cc(/C=C\c2cccs2)nn1
pIC50 [7]: < 4.48 | Activity [8]: Non-Toxic

C[C@@H]1C[C@H]2[C@@H]3CCC4=CC(=O)C=C[C@]4(C)[C@@]3(F)[C@@H](O)C[C@]2(C)[C@@]1(O)C(=O)CO [DEXAMETHASONE]
pIC50 [7]: 8.44

C=CCn1nnc2ccc3sccc3c21
pIC50 [7]: 4.56 | Activity [8]: Non-Toxic | pIC50 [4]: 5.42 | inhibition [11]: 80% | pIC50 [12]: 4.25 | inhibition [6]: 76.9%

C(=C/c1cccs1)/c1cn(CCc2cc3ccccc3[nH]2)nn1
pIC50 [7]: < 4.48 | Activity [8]: Non-Toxic | pIC50 [4]: 3.63 | inhibition [5]: 59.5% | pIC50 [12]: 3.22 | inhibition [6]: 67.4%

COc1ccc(Cn2cc(/C=C/c3ccccc3C#N)nn2)cc1
pIC50 [7]: < 4.48 | Activity [8]: Non-Toxic

C=CCn1cc(/C=C/c2cccs2)nn1
pIC50 [7]: < 4.48 | Activity [8]: Non-Toxic

c1ccc2[nH]c(CCn3nnc4ccc5sccc5c43)cc2c1
inhibition (INH) [3]: <50% | Activity [8]: Non-Toxic

CC(c1ccccc1)n1cc(/C=C\c2cccs2)nn1 (stereo not drawn)
pIC50 [7]: < 4.48 | Activity [8]: Non-Toxic

CCCn1cc(/C=C\c2cccs2)nn1
pIC50 [7]: < 4.48 | Activity [8]: Non-Toxic | pIC50 [4]: 4.02 | inhibition [9]: 66.1% | inhibition [10]: 21.9%

COc1ccc(Cn2nnc3ccc4cccc(C#N)c4c32)cc1
inhibition (INH) [3]: <50%

CCCn1cc(/C=C/c2cccs2)nn1
pIC50 [7]: < 4.48 | Activity [8]: Non-Toxic | inhibition [13]: 79.2% | inhibition [6]: 36.9%

COc1ccc(Cn2nnc3ccc4ccc(OC)cc4c32)cc1
pIC50 [7]: 5.66 | Activity [8]: Non-Toxic

O=[N+]([O-])c1ccc(-n2cc(/C=C\c3cccs3)nn2)cc1
inhibition [14]: 12.3% | inhibition [15]: 34.1%
